# Laboratory results from US20260365670A1, “EGFR INHIBITORS AND USES THEREOF” (DIZAL (JIANGSU) PHARMACEUTICAL CO., LTD., priority 2022, published 2026).
# Read-outs that look alike come from different tables or passages of the source.
# Legend:
# EGFR (d746-750 C797S) = molecular target: T1, EGFR (d746-750 C797S) (Homo sapiens, UniProt P00533, C797S/DEL746-750); experiment: Inhibition of EGFR (d746-750 C797S) biochemical enzymatic activity (HTRF); details: 1 mM ATP
# T1 construct: purchased signalchem
# T1 sequence (P00533 with tags, fused parts or gaps DEL746-750/C797S limits assumed): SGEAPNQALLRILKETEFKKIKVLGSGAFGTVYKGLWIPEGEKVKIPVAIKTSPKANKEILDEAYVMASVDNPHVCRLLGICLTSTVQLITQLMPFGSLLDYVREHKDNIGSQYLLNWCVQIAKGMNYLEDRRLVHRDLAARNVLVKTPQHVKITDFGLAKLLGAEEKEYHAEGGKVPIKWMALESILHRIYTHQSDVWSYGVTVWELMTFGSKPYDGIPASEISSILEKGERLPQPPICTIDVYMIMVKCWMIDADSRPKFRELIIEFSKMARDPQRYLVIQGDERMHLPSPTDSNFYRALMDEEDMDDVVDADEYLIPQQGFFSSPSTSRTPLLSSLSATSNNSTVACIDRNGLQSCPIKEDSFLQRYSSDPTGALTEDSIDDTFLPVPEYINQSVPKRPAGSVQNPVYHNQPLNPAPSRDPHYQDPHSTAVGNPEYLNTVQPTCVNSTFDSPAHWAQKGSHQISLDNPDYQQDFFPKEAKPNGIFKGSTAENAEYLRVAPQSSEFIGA
# Summary of the method: (§1)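 HTRF kinase assay: each EGFR enzyme phosphorylated 1 μM biotinylated TK substrate with 1 mM ATP in buffer containing 5 mM MgCl2, 1 mM MnCl2, 0.01% CHAPS, 1 mM DTT, 0.5% DMSO. After 1 h at room temperature, EDTA detection mix stopped the reaction. IC50 came from a four-parameter logistic fit of the 665/615 nm ratio.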
# EGFR Exon19Del = molecular target: T2, EGFR Exon19Del (Homo sapiens, UniProt P00533, DEL746-750); experiment: Inhibition of EGFR Exon19Del biochemical enzymatic activity (HTRF); details: read-out: IC50 @Del19
# T2 construct: purchased Carna Bio
# Summary of the method: as §1
# [1] = system: Ba/F3 cells expressing EGFR mutations; experiment: Cell proliferation assay, Ba/F3 cells expressing EGFR mutations (CellTiter-Glo, 72 hours); format: cell-based
# Summary of the method: (§2)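 Seed Ba/F3 at 5000 cells/well and PC-9 at 500 cells/well (10% FBS RPMI1640); incubate overnight; add compound dilution series; read a G0 plate; incubate; read G3; GI50 from best-fit curve.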
# EGFR[T790M/C797S/L858R] = molecular target: T3, EGFR[T790M/C797S/L858R] (Homo sapiens, UniProt P00533, C797S/L858R/T790M); experiment: Inhibition of EGFR[T790M/C797S/L858R] biochemical enzymatic activity (HTRF); details: 1 mM ATP
# T3 construct: purchased Carna Bio
# T3 sequence (P00533 25-1210 T790M/C797S/L858R): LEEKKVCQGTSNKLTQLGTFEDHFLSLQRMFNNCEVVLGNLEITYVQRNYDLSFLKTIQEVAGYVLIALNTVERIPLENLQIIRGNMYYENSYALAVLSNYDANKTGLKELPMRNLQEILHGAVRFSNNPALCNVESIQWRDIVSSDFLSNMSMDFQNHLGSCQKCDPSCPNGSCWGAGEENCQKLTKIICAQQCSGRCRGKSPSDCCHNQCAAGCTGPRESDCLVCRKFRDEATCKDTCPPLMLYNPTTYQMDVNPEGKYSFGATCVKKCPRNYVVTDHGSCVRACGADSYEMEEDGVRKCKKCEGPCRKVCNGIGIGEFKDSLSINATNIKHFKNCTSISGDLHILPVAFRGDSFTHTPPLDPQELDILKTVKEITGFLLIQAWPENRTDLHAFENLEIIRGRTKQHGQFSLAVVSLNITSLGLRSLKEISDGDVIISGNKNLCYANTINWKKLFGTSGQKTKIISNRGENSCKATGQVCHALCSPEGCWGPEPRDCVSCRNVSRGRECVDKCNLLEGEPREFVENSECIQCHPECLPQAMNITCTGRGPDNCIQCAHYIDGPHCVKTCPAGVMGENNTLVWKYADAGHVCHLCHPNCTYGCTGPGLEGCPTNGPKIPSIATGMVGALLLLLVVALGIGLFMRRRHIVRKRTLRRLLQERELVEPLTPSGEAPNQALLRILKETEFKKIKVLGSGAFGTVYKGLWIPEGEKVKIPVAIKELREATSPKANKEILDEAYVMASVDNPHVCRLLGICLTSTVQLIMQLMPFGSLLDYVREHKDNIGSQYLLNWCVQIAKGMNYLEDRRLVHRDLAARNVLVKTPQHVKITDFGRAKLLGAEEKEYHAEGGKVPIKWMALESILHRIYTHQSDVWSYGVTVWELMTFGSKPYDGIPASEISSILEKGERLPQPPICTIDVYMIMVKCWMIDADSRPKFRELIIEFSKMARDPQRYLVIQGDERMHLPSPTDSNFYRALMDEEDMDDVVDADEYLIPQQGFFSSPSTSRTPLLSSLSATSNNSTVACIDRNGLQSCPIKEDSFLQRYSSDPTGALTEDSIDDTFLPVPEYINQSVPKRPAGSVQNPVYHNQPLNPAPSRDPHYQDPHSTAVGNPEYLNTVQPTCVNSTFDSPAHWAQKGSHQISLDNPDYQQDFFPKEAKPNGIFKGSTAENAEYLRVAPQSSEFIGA
# Summary of the method: as §1
# EGFR L858R = molecular target: T4, EGFR L858R (Homo sapiens, UniProt P00533, L858R); experiment: Inhibition of EGFR L858R biochemical enzymatic activity (HTRF); details: 1 mM ATP
# T4 construct: purchased Carna Bio
# Summary of the method: as §1
# EGFR Exon19Del/T790M = molecular target: T5, EGFR Exon19Del/T790M (Homo sapiens, UniProt P00533, DEL746-750/T790M); experiment: Inhibition of EGFR Exon19Del/T790M biochemical enzymatic activity (HTRF); details: 1 mM ATP
# T5 construct: purchased Carna Bio
# T5 sequence (P00533 with tags, fused parts or gaps DEL746-750/T790M limits assumed): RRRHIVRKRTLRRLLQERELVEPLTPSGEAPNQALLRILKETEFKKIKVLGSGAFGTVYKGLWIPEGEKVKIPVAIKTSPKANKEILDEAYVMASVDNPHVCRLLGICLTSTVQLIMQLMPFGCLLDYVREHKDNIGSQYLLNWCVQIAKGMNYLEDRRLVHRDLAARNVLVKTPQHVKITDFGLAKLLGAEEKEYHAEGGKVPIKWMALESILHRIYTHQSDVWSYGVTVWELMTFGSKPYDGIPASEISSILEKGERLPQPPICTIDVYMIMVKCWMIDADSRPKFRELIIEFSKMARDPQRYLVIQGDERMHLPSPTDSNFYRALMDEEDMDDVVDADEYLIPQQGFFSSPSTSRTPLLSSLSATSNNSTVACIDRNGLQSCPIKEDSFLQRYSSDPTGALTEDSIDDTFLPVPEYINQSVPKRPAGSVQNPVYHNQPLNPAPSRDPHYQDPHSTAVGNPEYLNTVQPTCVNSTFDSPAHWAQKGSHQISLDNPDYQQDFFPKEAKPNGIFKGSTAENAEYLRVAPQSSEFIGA
# Summary of the method: as §1
# EGFR (C797S L858R) = molecular target: T6, EGFR (C797S L858R) (Homo sapiens, UniProt P00533, C797S/L858R); experiment: Inhibition of EGFR (C797S L858R) biochemical enzymatic activity (HTRF); details: 1 mM ATP
# T6 construct: purchased signalchem
# Summary of the method: as §1
# EGFR wild type = molecular target: T7, EGFR wild type (Homo sapiens, UniProt P00533); experiment: Inhibition of EGFR wild type biochemical enzymatic activity (HTRF); details: 1 mM ATP
# T7 construct: purchased Carna Bio
# T7 sequence (P00533 25-1210): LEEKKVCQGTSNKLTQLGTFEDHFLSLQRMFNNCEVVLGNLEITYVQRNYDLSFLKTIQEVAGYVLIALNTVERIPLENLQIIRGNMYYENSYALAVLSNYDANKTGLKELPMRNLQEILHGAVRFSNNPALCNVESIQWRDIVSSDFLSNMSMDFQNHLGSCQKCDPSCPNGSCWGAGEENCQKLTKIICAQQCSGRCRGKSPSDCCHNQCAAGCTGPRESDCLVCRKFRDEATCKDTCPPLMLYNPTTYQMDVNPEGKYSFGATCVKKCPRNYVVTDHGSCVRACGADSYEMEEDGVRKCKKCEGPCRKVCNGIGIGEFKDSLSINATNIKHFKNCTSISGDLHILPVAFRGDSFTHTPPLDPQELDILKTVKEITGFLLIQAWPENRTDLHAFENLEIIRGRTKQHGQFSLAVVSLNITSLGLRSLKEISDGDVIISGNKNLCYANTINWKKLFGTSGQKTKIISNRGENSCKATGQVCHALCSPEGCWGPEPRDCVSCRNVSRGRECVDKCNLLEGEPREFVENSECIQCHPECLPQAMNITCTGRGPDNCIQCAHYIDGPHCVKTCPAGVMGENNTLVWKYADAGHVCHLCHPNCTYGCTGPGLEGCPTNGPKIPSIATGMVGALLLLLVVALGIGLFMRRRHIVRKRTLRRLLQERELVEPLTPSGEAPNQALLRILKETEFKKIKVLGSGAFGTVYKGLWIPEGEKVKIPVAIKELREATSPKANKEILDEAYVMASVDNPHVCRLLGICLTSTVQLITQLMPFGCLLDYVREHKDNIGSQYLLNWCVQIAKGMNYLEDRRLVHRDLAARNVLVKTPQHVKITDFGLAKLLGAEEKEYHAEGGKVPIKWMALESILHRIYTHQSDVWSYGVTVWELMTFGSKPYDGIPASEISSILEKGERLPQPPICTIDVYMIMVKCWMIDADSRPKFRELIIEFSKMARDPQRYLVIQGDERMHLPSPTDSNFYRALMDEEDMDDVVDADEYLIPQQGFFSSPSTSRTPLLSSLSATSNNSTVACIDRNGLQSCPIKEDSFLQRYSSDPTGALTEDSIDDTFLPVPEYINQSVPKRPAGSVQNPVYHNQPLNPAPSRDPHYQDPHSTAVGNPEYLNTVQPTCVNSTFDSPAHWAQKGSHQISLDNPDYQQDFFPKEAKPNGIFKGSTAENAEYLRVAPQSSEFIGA
# Summary of the method: as §1
# EGFR L858R/T790M = molecular target: T8, EGFR L858R/T790M (Homo sapiens, UniProt P00533, L858R/T790M); experiment: Inhibition of EGFR L858R/T790M biochemical enzymatic activity (HTRF); details: 1 mM ATP
# T8 construct: purchased Carna Bio
# T8 sequence (P00533 25-1210 T790M/L858R): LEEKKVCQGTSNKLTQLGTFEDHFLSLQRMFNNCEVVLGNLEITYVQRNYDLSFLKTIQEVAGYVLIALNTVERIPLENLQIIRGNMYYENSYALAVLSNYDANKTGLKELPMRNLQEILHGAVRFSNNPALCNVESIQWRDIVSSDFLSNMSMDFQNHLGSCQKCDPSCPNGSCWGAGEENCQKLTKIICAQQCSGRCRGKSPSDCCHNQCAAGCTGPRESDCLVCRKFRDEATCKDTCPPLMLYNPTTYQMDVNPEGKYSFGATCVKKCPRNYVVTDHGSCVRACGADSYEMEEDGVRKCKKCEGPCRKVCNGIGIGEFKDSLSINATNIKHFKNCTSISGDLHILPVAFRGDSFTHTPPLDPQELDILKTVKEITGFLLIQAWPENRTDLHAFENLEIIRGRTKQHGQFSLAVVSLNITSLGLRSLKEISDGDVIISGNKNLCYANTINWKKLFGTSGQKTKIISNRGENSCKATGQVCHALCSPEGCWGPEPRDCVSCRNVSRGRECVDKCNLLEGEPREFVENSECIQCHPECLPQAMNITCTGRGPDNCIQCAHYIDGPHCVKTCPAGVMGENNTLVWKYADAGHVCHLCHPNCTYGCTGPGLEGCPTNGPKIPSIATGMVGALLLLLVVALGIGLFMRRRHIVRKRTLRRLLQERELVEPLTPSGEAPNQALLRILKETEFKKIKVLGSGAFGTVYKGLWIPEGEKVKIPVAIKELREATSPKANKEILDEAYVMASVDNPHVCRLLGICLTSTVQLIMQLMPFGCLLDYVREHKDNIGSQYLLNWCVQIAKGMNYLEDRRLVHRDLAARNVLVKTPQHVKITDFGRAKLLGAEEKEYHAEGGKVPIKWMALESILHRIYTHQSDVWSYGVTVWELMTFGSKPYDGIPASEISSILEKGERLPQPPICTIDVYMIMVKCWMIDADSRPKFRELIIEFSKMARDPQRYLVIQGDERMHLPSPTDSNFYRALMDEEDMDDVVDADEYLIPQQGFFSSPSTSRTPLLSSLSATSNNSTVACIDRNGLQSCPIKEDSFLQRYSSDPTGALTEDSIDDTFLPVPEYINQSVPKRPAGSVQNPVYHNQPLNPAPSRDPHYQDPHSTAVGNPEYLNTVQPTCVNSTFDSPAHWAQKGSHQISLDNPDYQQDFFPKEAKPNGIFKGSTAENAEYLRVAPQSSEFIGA
# Summary of the method: as §1
# PC-9 = experiment: Cell proliferation assay, PC-9 cells (CellTiter-Glo, 72 hours); format: cell-based; details: PC9 cells, read-out: GI50 PC9
# Summary of the method: as §2
# A-431 = experiment: Cell proliferation assay, A-431 cells (GI50, Table 6); format: cell-based
# Description: [Worded in the source for another cell line; this cell line is reported under the same test.] Ba/F3 cells expressing EGFR mutations were seeded in 384-well plates at 5000 cells/well in RPMI1640 medium containing […]. PC-9 at 500 cells/well was seeded into 384-well plates in RPMI1640 medium with 10% FBS. After overnight incubation, the assay plates were dosed with compounds at a series of concentrations. Alongside dosing the assay plates, the day 0 plate was processed using CellTiter-Glo® Luminescent Cell Viability Assay (Promega) to measure the number of viable cells (G0). The assay plates were further incubated for 72 hours and the number of viable cells (G3) was measured. The percentage of proliferation was calculated as: […]=100×(G3 value of sample well−G0 value)/(G3 value of DMSO control−G0 value). The concentration of compound producing 50% proliferation inhibition (GI50) was further calculated in best-fit curves using XLFit software. N/A=not available.
# [2] = molecular target: T9, EGFR[T790M/C797S/d746-750] (Homo sapiens, UniProt P00533, C797S/DEL746-750/T790M); experiment: Inhibition of EGFR[T790M/C797S/d746-750] biochemical enzymatic activity (HTRF)
# T9 construct: purchased Carna Bio
# Summary of the method: as §1
# [3] = EGFR (d746-750 C797S), 1 h at room temperature, read-out: IC50 @Del19-C797S
# [4] = EGFR Exon19Del, 1 mM ATP, 1 h at room temperature
# [5] = BaF3 cells, EGFR DEL19 - C797S, read-out: GI50 DEL19 - C797S/BaF3
# [6] = BaF3 cells, EGFR DEL19 - T790-C797S, read-out: GI50 DEL19 - T790-C797S/BaF3
# [7] = BaF3 cells, EGFR L858R - C797S, read-out: GI50 L858R - C797S/BaF3
# [8] = BaF3 cells, EGFR L858R - T790-C797S, read-out: GI50 L858R - T790-C797S/BaF3
# [9] = BaF3 cells, EGFR L858R - T790M, read-out: GI50 L858R - T790M/BaF3
# [10] = BaF3 cells, EGFR L858R, read-out: GI50 L858R/BaF3
# [11] = EGFR DEL19 - T790M, read-out: GI50 DEL19 - T790M
# [12] = EGFR[T790M/C797S/L858R], 1 h at room temperature, read-out: IC50 @T790M- C797S - L858R
# [13] = 1 h at room temperature, read-out: IC50 @L858R
# [14] = EGFR Exon19Del/T790M, 1 h at room temperature, read-out: IC50 @Del19-T790M
# [15] = EGFR (C797S L858R), 1 h at room temperature, read-out: IC50 @L858-C797S
# [16] = EGFR wild type, 1 h at room temperature, read-out: IC50 @WT
# [17] = EGFR L858R/T790M, 1 h at room temperature, read-out: IC50 @L858R-T790M
# [18] = EGFR[T790M/C797S/d746-750], 1 mM ATP, 1 h at room temperature, read-out: IC50 @T790M - C797S - Del19
IC50 (EGFR (d746-750 C797S); [3]),IC50 (EGFR Exon19Del; [4]),"GI50 [1, 5]","GI50 [1, 6]","GI50 [1, 7]","GI50 [1, 8]","GI50 [1, 9]","GI50 [1, 10]","GI50 [1, 11]",IC50 (EGFR[T790M/C797S/L858R]; [12]),IC50 (EGFR L858R; [13]),IC50 (EGFR Exon19Del/T790M; [14]),IC50 (EGFR (C797S L858R); [15]),IC50 (EGFR wild type; [16]),IC50 (EGFR L858R/T790M; [17]),GI50 (PC-9),GI50 (A-431; A-431 cells),"IC50 [2, 18]",SMILES,also measured
8.5 nM,21 nM,2 nM,2 nM,11 nM,2 nM,2 nM,19 nM,8 nM,5.5 nM,267 nM,8.4 nM,66 nM,4900 nM,14 nM,22 nM,3060 nM,7 nM,"Cc1cc2cc(n1)-c1cnn(C)c1OCCN1CC3CCC(C3)(C1)n1c(nc3ccc(N4CCC(N5CCOCC5)C4)cc31)NC2=O (single isomer, unassigned) [Example B44B2]",
,,,,,,,,,,,,,,,,,,Cn1ncc2c1OCCN1CC3CCC(CC3)(C1)n1c(nc3ccc(N4CCN(C5CC5)CC4)cc31)NC(=O)c1cc-2c(=O)n(C)c1 [Example A128],"IC50 (EGFR (d746-750 C797S); EGFR Del19-C797S, 1 h, room temperature, read-out: IC50 (nM) @Del19-C797S): 4.9 nM; IC50 (EGFR Exon19Del; EGFR Del19, 1 mM ATP, 1 h, room temperature): 11 nM; GI50 ([1]; Mus musculus, BaF3, 72 h, BaF3 cells, EGFR DEL19 - C797S, read-out: GI50 DEL19 - C797S/BaF3): 13 nM; GI50 ([1]; Mus musculus, BaF3, 72 h, BaF3 cells, EGFR DEL19 - T790-C797S, read-out: GI50 DEL19 - T790-C797S/BaF3): 90 nM; GI50 ([1]; Mus musculus, BaF3, 72 h, BaF3 cells, EGFR L858R - C797S, read-out: GI50 L858R - C797S/BaF3): 65 nM; GI50 ([1]; Mus musculus, BaF3, 72 h, BaF3 cells, EGFR L858R - T790-C797S, read-out: GI50 L858R - T790-C797S/BaF3): 47 nM; GI50 ([1]; Mus musculus, BaF3, 72 h, BaF3 cells, EGFR L858R - T790M, read-out: GI50 L858R - T790M/BaF3): 119 nM; GI50 ([1]; Mus musculus, BaF3, 72 h, BaF3 cells, EGFR L858R, read-out: GI50 L858R/BaF3): 11 nM; GI50 ([1]; Mus musculus, BaF3, 72 h, EGFR DEL19 - T790M, read-out: GI50 DEL19 - T790M): 66 nM; IC50 (EGFR[T790M/C797S/L858R]; EGFR T790M-C797S-L858R, 1 h, room temperature, read-out: IC50 (nM) @T790M- C797S - L858R): 33 nM; IC50 (EGFR L858R; 1 h, room temperature, read-out: IC50 (nM) @L858R): 202 nM; IC50 (EGFR Exon19Del/T790M; EGFR Del19-T790M, 1 h, room temperature, read-out: IC50 (nM) @Del19-T790M): 8 nM; IC50 (EGFR (C797S L858R); EGFR L858-C797S, 1 h, room temperature, read-out: IC50 (nM) @L858-C797S): 49 nM; IC50 (EGFR wild type; EGFR WT, 1 h, room temperature, read-out: IC50 (nM) @WT): > 5000 nM; IC50 (EGFR L858R/T790M; EGFR L858R-T790M, 1 h, room temperature, read-out: IC50 (nM) @L858R-T790M): 307 nM; GI50 (PC-9; Homo sapiens, PC-9, 72 h): 61 nM; GI50 (A-431; Homo sapiens, A-431, A-431 cells): 2650 nM; IC50 ([2]; EGFR T790M-C797S-Del19, 1 mM ATP, 1 h, room temperature, read-out: IC50 (nM) @T790M - C797S - Del19): 4.7 nM"
> 5000 nM,> 5000 nM,549 nM,638 nM,2560 nM,350 nM,939 nM,4180 nM,1100 nM,> 5000 nM,> 5000 nM,> 5000 nM,> 5000 nM,> 5000 nM,> 5000 nM,1930 nM,7540 nM,2740 nM,"Cc1cc2cc(n1)-c1cnn(C)c1OCCN1CC3CCC(C3)(C1)n1c(nc3ccc(N4CCN(C5CC5)CC4)cc31)NC2=O (single isomer, unassigned) [Example B55A]",
